System: solid malignant tumors
Test: GEN1046 Phase I dose escalation (NCT03917381), response by RECIST v1.1
Format: in vivo, human
Conditions: for BOR Stable Disease, (percent) / BOR Stable Disease, patients / BOR Complete Response, (percent) / BOR Complete Response, patients / BOR Progressive Disease, (percent) / BOR Progressive Disease, patients / BOR Partial Response, (percent) / BOR Partial Response, patients: 3 Feb. 2020
Excerpt: The resistance to, failure to respond to and/or relapse from treatment with a binding agent of the invention and/or other therapeutic agent(s) may be determined according to the Response Evaluation Criteria In Solid Tumors; version 1.1 (RECIST Criteria v1.1).
The “best overall response” is the best response recorded from the start of the treatment until disease progression/recurrence (the smallest measurements recorded since the treatment started will be used as the reference for PD). Subjects with CR or PR are considered to be objective response. Subjects with CR, PR or SD are considered to be in disease control. Subjects with NE are counted as non-responders. […]
Clinical trial on GCT1046-01 (ClinicalTrials.gov Identifier: NCT03917381) was designed as a two-part trial, including an ongoing dose escalation part and a planned expansion part.
The trial consists of 2 parts; a First-in-Human (FIH) dose escalation (Phase I) and an expansion (Phase 11a).
For dose escalation, subject was required to be a man or […] and was required to have measurable disease according to RECIST 1.1.

Substance: GEN1046: PD-L1×4-1BB bispecific antibody: PD-L1-547-FEAL combined with CD137-009-HC7LC2-FEAR (SEQ ID NOs: 1, 5, 21, 19; 8, 12, 22, 20)
- BOR Stable Disease, (percent) (140 mg (n = 1)): (0)
- BOR Stable Disease, patients (140 mg (n = 1)): 0
- CR (Complete Response), patients (200 mg (N 9), Oct. 12, 2020): 0
- Confirmed CR (Complete Response), patients (200 mg (N 9), Oct. 12, 2020): 0
- Confirmed Disease Control (PR + PR + SD) Rate, % (200 mg (N 9), Oct. 12, 2020): 66.7%
- Confirmed Disease Control (PR + PR + SD) Rate, patients (200 mg (N 9), Oct. 12, 2020): 6
- Confirmed NE (Not Evaluable), % of patients (200 mg (N 9), Oct. 12, 2020): 11.1%
- Confirmed NE (Not Evaluable), patients (200 mg (N 9), Oct. 12, 2020): 1
- Confirmed Objective Response (CR + PR) Rate, patients (200 mg (N 9), Oct. 12, 2020): 0
- Confirmed PD (Progressive Disease), % of patients (200 mg (N 9), Oct. 12, 2020): 22.2%
- Confirmed PD (Progressive Disease), patients (200 mg (N 9), Oct. 12, 2020): 2
- Confirmed PR (Partial Response), patients (200 mg (N 9), Oct. 12, 2020): 0
- Confirmed SD (Stable Disease), % of patients (200 mg (N 9), Oct. 12, 2020): 66.7%
- Confirmed SD (Stable Disease), patients (200 mg (N 9), Oct. 12, 2020): 6
- Disease Control (PR + PR + SD) Rate, % (200 mg (N 9), Oct. 12, 2020): 66.7%
- Disease Control (PR + PR + SD) Rate, patients (200 mg (N 9), Oct. 12, 2020): 6
- NE (Not Evaluable), % of patients (200 mg (N 9), Oct. 12, 2020): 11.1%
- NE (Not Evaluable), patients (200 mg (N 9), Oct. 12, 2020): 1
- Objective Response (CR + PR) Rate, % (200 mg (N 9), Oct. 12, 2020): 11.1%
- Objective Response (CR + PR) Rate, patients (200 mg (N 9), Oct. 12, 2020): 1
- PD (Progressive Disease), % of patients (200 mg (N 9), Oct. 12, 2020): 22.2%
- PD (Progressive Disease), patients (200 mg (N 9), Oct. 12, 2020): 2
- PR (Partial Response), % of patients (200 mg (N 9), Oct. 12, 2020): 11.1%
- PR (Partial Response), patients (200 mg (N 9), Oct. 12, 2020): 1
- BOR Complete Response, (percent) (200 mg (n = 8)): (0)
- BOR Complete Response, patients (200 mg (n = 8)): 0
- BOR Progressive Disease, (percent) (200 mg (n = 8)): (25)
- BOR Progressive Disease, patients (200 mg (n = 8)): 2
- BOR Stable Disease, (percent) (200 mg (n = 8)): (62.5)
- BOR Stable Disease, patients (200 mg (n = 8)): 5
- BOR Partial Response, (percent) (200 mg (n = 8), uPR): (12.5)
- BOR Partial Response, patients (200 mg (n = 8), uPR): 1^1
- CR (Complete Response), patients (400 mg (N 9), Oct. 12, 2020): 0
- Confirmed CR (Complete Response), patients (400 mg (N 9), Oct. 12, 2020): 0
- Confirmed Disease Control (PR + PR + SD) Rate, % (400 mg (N 9), Oct. 12, 2020): 77.8%
- Confirmed Disease Control (PR + PR + SD) Rate, patients (400 mg (N 9), Oct. 12, 2020): 7
- Confirmed NE (Not Evaluable), patients (400 mg (N 9), Oct. 12, 2020): 0
- Confirmed Objective Response (CR + PR) Rate, patients (400 mg (N 9), Oct. 12, 2020): 0
- Confirmed PD (Progressive Disease), % of patients (400 mg (N 9), Oct. 12, 2020): 22.2%
- Confirmed PD (Progressive Disease), patients (400 mg (N 9), Oct. 12, 2020): 2
- Confirmed PR (Partial Response), patients (400 mg (N 9), Oct. 12, 2020): 0
- Confirmed SD (Stable Disease), % of patients (400 mg (N 9), Oct. 12, 2020): 77.8%
- Confirmed SD (Stable Disease), patients (400 mg (N 9), Oct. 12, 2020): 7
- Disease Control (PR + PR + SD) Rate, % (400 mg (N 9), Oct. 12, 2020): 77.8%
- Disease Control (PR + PR + SD) Rate, patients (400 mg (N 9), Oct. 12, 2020): 7
- NE (Not Evaluable), patients (400 mg (N 9), Oct. 12, 2020): 0
- Objective Response (CR + PR) Rate, patients (400 mg (N 9), Oct. 12, 2020): 0
- PD (Progressive Disease), % of patients (400 mg (N 9), Oct. 12, 2020): 22.2%
- PD (Progressive Disease), patients (400 mg (N 9), Oct. 12, 2020): 2
- PR (Partial Response), patients (400 mg (N 9), Oct. 12, 2020): 0
- BOR Complete Response, (percent) (400 mg (n = 6)): (0)
- BOR Complete Response, patients (400 mg (n = 6)): 0
- BOR Partial Response, (percent) (400 mg (n = 6)): (0)
- BOR Partial Response, patients (400 mg (n = 6)): 0
- BOR Progressive Disease, (percent) (400 mg (n = 6)): (0)
- BOR Progressive Disease, patients (400 mg (n = 6)): 0
- BOR Stable Disease, (percent) (400 mg (n = 6)): (100)
- BOR Stable Disease, patients (400 mg (n = 6)): 6
- CR (Complete Response), patients (800 mg (N 9), Oct. 12, 2020): 0
- Confirmed CR (Complete Response), patients (800 mg (N 9), Oct. 12, 2020): 0
- Confirmed Disease Control (PR + PR + SD) Rate, % (800 mg (N 9), Oct. 12, 2020): 55.6%
- Confirmed Disease Control (PR + PR + SD) Rate, patients (800 mg (N 9), Oct. 12, 2020): 5
- Confirmed NE (Not Evaluable), % of patients (800 mg (N 9), Oct. 12, 2020): 22.2%
- Confirmed NE (Not Evaluable), patients (800 mg (N 9), Oct. 12, 2020): 2
- Confirmed Objective Response (CR + PR) Rate, patients (800 mg (N 9), Oct. 12, 2020): 0
- Confirmed PD (Progressive Disease), % of patients (800 mg (N 9), Oct. 12, 2020): 22.2%
